Test results taken from PMC8865417, “Receptor Interaction Profiles of 4-Alkoxy-3,5-Dimethoxy-Phenethylamines (Mescaline Derivatives) and Related Amphetamines” (Frontiers in Pharmacology, 2022).

How the values were obtained:
[1] = biological target: T1, hSERT (Homo sapiens, UniProt P31645); experiment: Radioligand binding at hSERT ([3H]citalopram)
T1 construct: expressed in transfected cells; host or cells: HEK 293 cells (membrane preparations)

[2] = biological target: T2, dopaminergic hD2 receptor (Homo sapiens, UniProt P14416); experiment: Radioligand binding at dopaminergic hD2 receptor ([3H]spiperone)
T2 construct: expressed in transfected cells; host or cells: HEK 293 cells (membrane preparations)

[3] = biological target: human 5-HT2A receptor (Homo sapiens, UniProt P28223); details: for Emax: NIH3T3, read-out: h5-HT2A Activation efficacy max ± SD, relative to 5-HT = 100%
[4] = biological target: T3, h5-HT2A receptor (Homo sapiens, UniProt P28223); experiment: Radioligand binding at h5-HT2A receptor ([3H]ketanserin); details: for Selectivity 5-HT2A vs. 5-HT1A / Selectivity 5-HT2A vs. 5-HT2C: binding ratio; for Ki: h5-HT2A Receptor binding Ki ± SD, [3H]ketanserin, mean ± SD
T3 construct: expressed in transfected cells; host or cells: HEK 293 cells (membrane preparations)

[5] = biological target: human 5-HT2B receptor (Homo sapiens, UniProt P41595); details: for Emax: HEK293, read-out: h5-HT2B Activation efficacy max ± SD, relative to 5-HT = 100%; for EC50: h5-HT2B Activation potency EC50 ± SD, HEK 293 cells, calcium FLIPR, mean ± SD
[6] = biological target: T4, h5-HT2C receptor (Homo sapiens, UniProt P28335); experiment: biochemical; format: binding; details: for Ki: [3H]mesulergine, mean ± SD, read-out: h5-HT2C Receptor binding Ki ± SD
T4 construct: expressed in transfected cells; host or cells: HEK 293 cells (membrane preparations)
T4 sequence (P28335 33-458): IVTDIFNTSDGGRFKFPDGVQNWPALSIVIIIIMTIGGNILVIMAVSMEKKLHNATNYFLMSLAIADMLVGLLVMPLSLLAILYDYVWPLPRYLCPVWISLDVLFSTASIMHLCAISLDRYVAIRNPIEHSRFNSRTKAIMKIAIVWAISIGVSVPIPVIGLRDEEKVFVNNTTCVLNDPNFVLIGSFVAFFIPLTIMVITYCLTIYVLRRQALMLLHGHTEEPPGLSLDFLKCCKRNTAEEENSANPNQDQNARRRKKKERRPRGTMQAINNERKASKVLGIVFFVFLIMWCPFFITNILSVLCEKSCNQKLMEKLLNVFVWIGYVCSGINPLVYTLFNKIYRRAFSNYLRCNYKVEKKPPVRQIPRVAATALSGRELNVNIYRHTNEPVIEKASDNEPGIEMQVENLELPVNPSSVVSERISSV

[7] = biological target: T5, hNET (Homo sapiens, UniProt P23975); experiment: Radioligand binding at hNET (N-methyl-[3H]nisoxetine)
T5 construct: expressed in transfected cells; host or cells: HEK 293 cells (membrane preparations)

[8] = biological target: T6, h5-HT1A receptor (Homo sapiens, UniProt P08908); experiment: Radioligand binding at h5-HT1A receptor ([3H]8-OH-DPAT)
T6 construct: expressed in transfected cells; host or cells: HEK 293 cells (membrane preparations)
T6 sequence (P08908 1-422): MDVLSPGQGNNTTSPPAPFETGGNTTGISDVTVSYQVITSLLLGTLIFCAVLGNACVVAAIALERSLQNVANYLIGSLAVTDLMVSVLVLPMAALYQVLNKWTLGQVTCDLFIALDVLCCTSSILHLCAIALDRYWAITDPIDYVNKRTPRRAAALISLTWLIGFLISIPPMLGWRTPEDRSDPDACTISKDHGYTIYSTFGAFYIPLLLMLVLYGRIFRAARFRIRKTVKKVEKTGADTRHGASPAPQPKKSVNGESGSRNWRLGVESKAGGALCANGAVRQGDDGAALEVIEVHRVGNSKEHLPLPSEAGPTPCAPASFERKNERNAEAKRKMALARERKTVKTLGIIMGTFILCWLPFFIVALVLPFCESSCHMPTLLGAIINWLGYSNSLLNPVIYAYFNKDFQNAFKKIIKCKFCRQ

[9] = biological target: T7, human TAAR1 (Homo sapiens, UniProt Q96RJ0); experiment: Activity at the human TAAR1 (cAMP assay, HEK 293 cells); format: cell-based
T7 construct: expressed in transfected cells; host or cells: HEK 293 cells
T7 sequence (Q96RJ0 1-339): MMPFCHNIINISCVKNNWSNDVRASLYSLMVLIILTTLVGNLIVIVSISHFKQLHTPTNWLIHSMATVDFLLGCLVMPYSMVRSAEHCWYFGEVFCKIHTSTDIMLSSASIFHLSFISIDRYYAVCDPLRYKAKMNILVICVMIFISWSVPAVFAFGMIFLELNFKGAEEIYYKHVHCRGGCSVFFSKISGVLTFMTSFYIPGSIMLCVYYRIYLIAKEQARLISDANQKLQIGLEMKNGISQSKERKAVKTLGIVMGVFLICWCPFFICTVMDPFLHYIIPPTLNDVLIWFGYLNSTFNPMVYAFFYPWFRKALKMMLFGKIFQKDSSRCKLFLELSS
Experimental: Once 80–90% confluency was reached, the cells were collected by removing the medium, washing with PBS and then adding 5 ml of trypsin/EDTA solution for 5 min at 37°C. Next, 45 ml of medium was added and the entire mixture was transferred into a falcon tube. The tube was then centrifuged at room temperature for 3 min at 900 revolutions per minute (rpm). Next, the supernatant was removed in order to resuspend the remaining cell pellet in fresh medium to 5 × 10^5 cells/ml. Hundred microliter of the cells was transferred into a 96-well plate ([…]; BIOCOAT 6640, Becton Dickinson, Allschwil, Switzerland) and incubated for 20 h at 37°C.
For the cAMP assay, the aspirated medium was replaced with 50 μl PBS without Ca^2+ and Mg^2+ ions. Using snap inversion, the PBS was extracted and the plate was gently tapped against tissue. Next, 90 μl of Krebs-Ringer Bicarbonate buffer (KRB, Sigma-Aldrich) containing 1 mM IBMX was added and incubated for 60 min at 37°C and 5% CO2/95% air. Each test compound was examined in duplicate in a concentration range between 300 pM and 30 μM. A standard curve with a range of cAMP concentrations (0.13 nM–10 μM) was created for each 96-well plate. Each experiment was accompanied with a reference plate that included RO5256390, β-phenylethylamine and p-tyramine. The cells were exposed to either 30 μl of compound solution, 30 μl of β-phenylethylamine (as maximal response), or a basal control in PBS (containing 1 mM IBMX) for 40 min at 37°C. Next, under forceful shaking using black lids, the cells were exposed to 50 μl of 3× detection mix solution (composed of Ru-cAMP Alexa700 anti-cAMP antibody and lysis buffer) for 120 min at room temperature. Using the NanoScan reader (Innovate Optische Messtechnik, Berlin, Germany; 456 nm excitation wavelength; 630 and 700 nm emission wavelengths), the fluorescence was examined and the FRET signal was determined using the following equation; FRET (700 nm)- P × FRET (630 nm), where P = Ru (700 nm)/Ru (630 nm).

[10] = biological target: T8, mouse TAAR1 (Mus musculus, UniProt Q923Y8); experiment: Radioligand binding at mouse TAAR1 ([3H]RO5166017)
T8 construct: expressed in transfected cells; host or cells: HEK 293 cells (membrane preparations)
T8 sequence (Q923Y8 whole entry): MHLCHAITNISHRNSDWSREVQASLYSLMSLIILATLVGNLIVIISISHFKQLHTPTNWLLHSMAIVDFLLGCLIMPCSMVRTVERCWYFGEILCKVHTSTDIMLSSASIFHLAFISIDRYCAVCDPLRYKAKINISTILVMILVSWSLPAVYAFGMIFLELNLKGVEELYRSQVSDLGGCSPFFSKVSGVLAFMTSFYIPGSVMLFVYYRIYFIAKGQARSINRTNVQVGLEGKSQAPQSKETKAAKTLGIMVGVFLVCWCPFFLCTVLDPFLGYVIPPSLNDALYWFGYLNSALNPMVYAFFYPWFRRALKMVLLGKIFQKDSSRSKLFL

T2 sequence (P14416 whole entry): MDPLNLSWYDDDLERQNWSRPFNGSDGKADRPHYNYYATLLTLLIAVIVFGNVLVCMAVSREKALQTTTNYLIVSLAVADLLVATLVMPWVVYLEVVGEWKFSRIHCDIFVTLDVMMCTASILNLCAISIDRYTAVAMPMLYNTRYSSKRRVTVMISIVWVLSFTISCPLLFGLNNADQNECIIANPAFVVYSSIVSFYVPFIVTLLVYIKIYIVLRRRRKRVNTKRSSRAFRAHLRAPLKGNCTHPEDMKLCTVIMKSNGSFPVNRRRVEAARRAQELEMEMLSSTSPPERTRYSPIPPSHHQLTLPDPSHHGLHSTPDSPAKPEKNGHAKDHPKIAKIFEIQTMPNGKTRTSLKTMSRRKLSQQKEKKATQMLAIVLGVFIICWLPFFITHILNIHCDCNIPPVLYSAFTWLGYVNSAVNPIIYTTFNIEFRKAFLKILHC
T5 sequence (P23975 whole entry): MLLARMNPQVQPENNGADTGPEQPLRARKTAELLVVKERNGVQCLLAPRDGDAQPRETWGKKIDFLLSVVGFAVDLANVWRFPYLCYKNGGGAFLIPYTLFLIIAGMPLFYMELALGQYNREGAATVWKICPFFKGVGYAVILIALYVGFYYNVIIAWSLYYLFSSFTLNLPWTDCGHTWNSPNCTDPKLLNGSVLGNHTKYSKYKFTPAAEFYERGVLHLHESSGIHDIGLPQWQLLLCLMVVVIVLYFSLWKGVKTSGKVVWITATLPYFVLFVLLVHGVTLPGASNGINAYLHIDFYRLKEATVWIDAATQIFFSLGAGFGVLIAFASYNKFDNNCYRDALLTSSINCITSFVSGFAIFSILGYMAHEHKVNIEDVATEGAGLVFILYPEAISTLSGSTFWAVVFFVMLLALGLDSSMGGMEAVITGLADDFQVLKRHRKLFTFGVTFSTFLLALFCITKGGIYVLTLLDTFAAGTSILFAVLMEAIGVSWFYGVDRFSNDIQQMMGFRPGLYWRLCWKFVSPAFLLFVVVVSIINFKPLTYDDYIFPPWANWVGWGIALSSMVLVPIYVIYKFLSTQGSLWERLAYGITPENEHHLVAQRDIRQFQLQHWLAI
human 5-HT2B receptor, sequence (P41595 whole entry): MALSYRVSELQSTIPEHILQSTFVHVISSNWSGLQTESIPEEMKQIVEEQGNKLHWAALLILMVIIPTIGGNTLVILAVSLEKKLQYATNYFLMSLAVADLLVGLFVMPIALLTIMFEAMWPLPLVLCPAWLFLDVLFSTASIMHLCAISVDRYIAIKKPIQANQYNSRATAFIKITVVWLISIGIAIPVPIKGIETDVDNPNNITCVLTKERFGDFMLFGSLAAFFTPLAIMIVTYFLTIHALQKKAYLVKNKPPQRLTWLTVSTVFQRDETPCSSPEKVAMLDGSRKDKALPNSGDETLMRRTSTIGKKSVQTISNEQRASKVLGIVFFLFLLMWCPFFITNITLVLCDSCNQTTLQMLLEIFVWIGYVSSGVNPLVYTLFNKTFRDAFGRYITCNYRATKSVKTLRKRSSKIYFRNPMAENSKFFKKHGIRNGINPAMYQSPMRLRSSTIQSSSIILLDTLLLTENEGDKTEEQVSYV
T1 sequence (P31645 whole entry): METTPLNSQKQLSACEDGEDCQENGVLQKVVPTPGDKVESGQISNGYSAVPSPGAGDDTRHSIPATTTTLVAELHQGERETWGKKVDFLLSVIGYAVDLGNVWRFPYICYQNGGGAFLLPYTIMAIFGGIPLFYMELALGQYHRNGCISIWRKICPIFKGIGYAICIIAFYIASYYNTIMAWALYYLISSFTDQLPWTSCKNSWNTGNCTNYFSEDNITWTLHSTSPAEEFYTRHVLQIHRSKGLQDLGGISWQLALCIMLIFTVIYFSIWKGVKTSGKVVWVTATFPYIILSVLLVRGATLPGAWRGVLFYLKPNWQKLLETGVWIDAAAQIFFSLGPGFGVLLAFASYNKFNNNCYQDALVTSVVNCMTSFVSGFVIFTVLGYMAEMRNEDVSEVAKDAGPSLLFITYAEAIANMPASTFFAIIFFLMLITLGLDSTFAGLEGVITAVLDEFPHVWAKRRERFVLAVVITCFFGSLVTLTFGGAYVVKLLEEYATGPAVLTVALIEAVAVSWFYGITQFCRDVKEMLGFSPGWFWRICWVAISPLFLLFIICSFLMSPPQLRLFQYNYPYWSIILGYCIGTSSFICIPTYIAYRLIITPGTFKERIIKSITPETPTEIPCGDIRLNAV
human 5-HT2A receptor, sequence (P28223 whole entry): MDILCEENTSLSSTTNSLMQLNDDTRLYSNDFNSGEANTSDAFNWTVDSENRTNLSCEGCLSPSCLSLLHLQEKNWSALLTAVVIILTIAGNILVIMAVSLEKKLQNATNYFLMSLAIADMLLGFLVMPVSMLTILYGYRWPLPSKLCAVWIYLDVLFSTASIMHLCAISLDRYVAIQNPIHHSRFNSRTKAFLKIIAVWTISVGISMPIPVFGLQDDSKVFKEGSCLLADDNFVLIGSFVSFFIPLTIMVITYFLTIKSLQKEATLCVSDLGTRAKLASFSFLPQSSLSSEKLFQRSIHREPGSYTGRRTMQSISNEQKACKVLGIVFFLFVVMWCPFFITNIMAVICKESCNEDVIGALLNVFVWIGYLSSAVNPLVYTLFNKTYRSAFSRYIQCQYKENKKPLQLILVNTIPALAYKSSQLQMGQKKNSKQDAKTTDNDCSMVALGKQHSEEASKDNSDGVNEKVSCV
T3 sequence (P28223 whole entry): as above

Row | Compound | Ki [1] [µM] | Ki [2] [µM] | EC50 [3] [µM] | Selectivity 5-HT2A vs. 5-HT1A [4] | Selectivity 5-HT2A vs. 5-HT2C [4] | Ki [4] [µM] | Higher affinity at the 5-HT2A receptor compared to mescaline (5) ([4]; ratio of Ki values) | Emax [5] [%] | EC50 [5] [µM] | Higher affinity at the 5-HT2C receptor than mescaline (5) [6] | Ki [6] [µM] | Ki [7] [µM] | Ki [8] [µM] | EC50 [9] [µM] | Ki [10] [µM] | Emax [3] [%] | Increase in 5-HT2A receptor affinity compared with TMA (6) ([4]; ratio of Ki values) [fold]
1 | COc1cc(CCN)cc(OC)c1OC(F)(F)F [compound 13, 4-trifluoromethoxy-3,5-dimethoxyphenethylamine] | > 7.5 | > 6.3 | 0.28 ± 0.12 | 7.9 | 1.0 | 0.28 ± 0.1 | 17- to 63 fold | 45 ± 6 | 0.088 ± 0.02 | 19- to 34 fold | 0.29 ± 0.1 | > 9.7 | 2.2 | > 10 | 1.9 | – | –
2 | COc1cc(CC(C)N)cc(OC)c1OC(F)F (stereo not drawn) [compound 14, 4-difluoromethoxy-3,5-dimethoxyamphetamine] | > 7.5 | > 6.3 | 0.076 ± 0.04 | – | 2.6 | 1.4 | – | 18 to 29 | 0.15 ± 0.1 | – | 3.7 | > 9.7 | > 5.6 | > 10 | 1 | – | –
3 | COc1cc(CCN)cc(OC)c1OCC(F)(F)F [compound 18, 3,5-dimethoxy-4-(2,2,2-trifluoroethoxy)phenethylamine] | > 7.5 | > 6.3 | 0.96 ± 0.05 | – | 0.9 | 1.3 | – | 29 ± 14 | 0.21 ± 0.13 | – | 1.2 | > 9.7 | > 5.6 | > 10 | > 4.2 | 44 to 78 | –
4 | COc1cc(CCN)cc(OC)c1OC(CF)CF [compound 23, 3,5-dimethoxy-4-(1,3-difluoroprop-2-yloxy)phenethylamine] | > 7.5 | > 6.3 | – | – | – | > 12 | – | – | > 10 | – | > 10 | > 9.7 | > 5.6 | > 10 | > 4.2 | – | –
5 | COc1cc(CCN)cc(OC)c1OCCCF [compound 25, 3,5-dimethoxy-4-(3-fluoropropoxy)-phenethylamine] | > 7.5 | > 6.3 | 4.5 | <1 | 0.6 | 9.3 | – | – | > 10 | – | 5.3 | > 9.7 | > 5.6 | > 10 | > 4.2 | 85 to 94 | –
6 | COc1cc(CCN)cc(OC)c1OCCC(F)(F)F [compound 26, 3,5-dimethoxy-4-(3,3,3-trifluoropropoxy)phenethylamine] | > 7.5 | > 6.3 | 4.9 | >1 | 1.1 | 5 | – | – | > 10 | – | 5.3 | > 9.7 | > 5.6 | > 10 | > 4.2 | – | –
7 | CCCOc1c(OC)cc(CC(C)N)cc1OC (stereo not drawn) [compound 28, 3,5-dimethoxy-4-propyloxyamphetamine] | > 7.5 | > 6.3 | 0.16 ± 0.02 | – | 2.0 | 1 | – | – | > 10 | – | 2 | > 9.7 | > 5.6 | > 10 | 1.8 | 86 to 102 | ≥ 10
8 | COc1cc(CCN)cc(OC)c1OC1CC1 [compound 29, 4-cyclopropyloxy-3,5-dimethoxyphenethylamine] | > 7.5 | > 6.3 | 2.6 | 0.9 | 1.3 | 4.3 | – | – | > 10 | – | 5.6 | > 9.7 | 4 | > 10 | > 4.2 | 85 to 94 | –
9 | C=C(C)COc1c(OC)cc(CCN)cc1OC [compound 32, 3,5-dimethoxy-4-methallyloxyphenethylamine] | > 7.5 | > 6.3 | 0.079 ± 0.012 | 9.3 | 0.9 | 0.55 ± 0.19 | 17- to 63 fold | – | > 10 | 19- to 34 fold | 0.52 ± 0.15 | > 9.7 | 5.1 | > 10 | 3.9 | 85 to 94 | –
10 | COc1cc(CCN)cc(OC)c1OCc1ccccc1 [compound 33, 4-benzyloxy-3,5-dimethoxyphenethylamine] | > 7.5 | > 6.3 | 0.027 ± 0.008 | 29 | 2.9 | 0.15 ± 0.01 | 17- to 63 fold | – | > 10 | 19- to 34 fold | 0.44 ± 0.12 | > 9.7 | 4.4 | > 10 | 2.4 | – | –
